Results taken from article PMC5557808 (Nature Communications, 2017).
“And” between values parts separate entries of the source, which are not always exact repeats. Equal values may be shown once. Where a SMILES comes first, the peptide text is derived from it. [ ]: non-standard residue; d: D form. The star is where a group is joined. X1 = CC[N+](CC)(CC(=O)Nc1c(C)cccc1C)Cc1cccc(C(=O)*)c1; Aha = [N-]=[N+]=NCC[C@H](N)C(=O)O

Assay: Cleavage of PCL denatonium conjugate in collected saliva
Assay type: in vitro ADME, human
Conditions: agitation, mean ± s.d.
Description: Volunteers were enrolled for a cross-sectional study. One group had peri-implant disease (defined as peri-implantitis or mucositis), the other group were healthy volunteers (asymptomatic patients with at least one dental implant). Unstimulated saliva was collected using an absorbent device. Sulcus fluid was collected from the peri-implant zone using standardized, commercially available MMP-8 collection strips and sent to Dentognostics GmbH (Jena, Germany) for analysis (referred to as chair-side test). Determination of total MMP activity in saliva samples was conducted using the human MMP-8 activity assay (QuickZyme, Leiden, the Netherlands) according to the manufacturer’s instructions. Saliva samples from the cross-sectional study were incubated with D-CLAN3Q (ID #1c) in MMP-8 buffer and cleavage was analyzed by HPLC. Further details are given in the Supplementary Methods.
For the collection of sulcus fluid and saliva from peri-implant d iseased p atien ts and fro m health y volunteers, a cross-section al stud y was initiated with the patient group having either a mucositis or a per i-implantitis vs. health y control. […] In this comparative study, the ability of the sensor diagnostic was assessed to discriminate saliva collected fro m p atien ts with peri -imp lan t disease to as ymp to matic carriers of at least on e i mplant (referred to as healthy control). […]

## CC[C@H](C)[C@H](NC(=O)CNC(=O)[C@H](CCC(N)=O)NC(=O)[C@@H]1CCCN1C(=O)CNC(=O)c1cccc(C[N+](CC)(CC)CC(=O)Nc2c(C)cccc2C)c1)C(=O)N[C@@H](C)C(=O)NCC(=O)N[C@@H](CCC(N)=O)C(=O)N[C@@H](CCN=[N+]=[N-])C(=O)N[C@@H](CCC(N)=O)C(=O)O [ID #1c] (X1-GPQGIAGQ[Aha]Q-OH)
Saliva of healthy volunteers (n = 14) 1:1 with 0.1 mg/mL peptide in MMP buffer pH 6.8-7.0, 37 °C, HPLC decrease of main peak
  Cleavage in saliva, healthy subjects, 5-10 min: 1.5 ± 0.8%
Saliva of patients with peri-implant disease (n = 19) 1:1 with 0.1 mg/mL peptide in MMP buffer pH 6.8-7.0, 37 °C, HPLC
  Cleavage in saliva, diseased subjects, 5-10 min: 4.2 ± 3.34% and < 5%
